Assay [1] can be described thus: In vitro cytotoxicity against mammalian L-6 cell line. Type of assay: functional, cell-based. As to conditions: L6.
For assay [2], the system named is Plasmodium falciparum. Description: In vitro inhibition of Plasmodium falciparum K1 (0.0013 ug/mL). Type of assay: functional, organism-based.
Assay [3] relates to Plasmodium falciparum. Put plainly: In vitro inhibition of Plasmodium falciparum K1 (0.2253 ug/mL). Type of assay: functional, organism-based.
The test system of assay [4] is Plasmodium falciparum. Put plainly: In vitro inhibition of Plasmodium falciparum K1 (0.00065 ug/mL). Type of assay: functional, organism-based.
The subject of assay [5] is Plasmodium falciparum. Put plainly: In vitro inhibition of Plasmodium falciparum K1 (0.0024 ug/mL). Type of assay: functional, organism-based.
Assay [6] relates to Plasmodium falciparum. Put plainly: In vitro inhibition of Plasmodium falciparum K1 (0.00054 ug/mL). Type of assay: functional, organism-based.
The subject of assay [7] is Plasmodium falciparum. Put plainly: In vitro inhibition of Plasmodium falciparum K1 (0.0088 ug/mL). Type of assay: functional, organism-based.
Assay [8] relates to Plasmodium falciparum. Description: In vitro inhibition of Plasmodium falciparum K1 (0.0008 ug/mL). Type of assay: functional, organism-based.

In brackets after ≈: the same amount, converted by molar mass.

The results in this text go back to ChEMBL document CHEMBL1144274, “Novel spiroanellated 1,2,4-trioxanes with high in vitro antimalarial activities” (Bioorg Med Chem Lett, 2005).

For the molecule `C=C(C)C1OO[C@]2(O[C@H]1C)[C@H]1CC3C[C@@H](C1)C[C@H]2C3` (stereo partly drawn), the results for the IC50 (in assay [1]; in the assay on Plasmodium falciparum [2]) were 1.7 µg/mL (≈ 6.43 µM) and 4.9 nM, respectively. `C=C(C)[C@@H]1OOC(C)(C)O[C@H]1C` registered a half-maximal inhibitory concentration (IC50) in the assay with Plasmodium falciparum [3] of 1310 nM.

In the case of `C=C(C)[C@@H]1OOC2(CCCCC2)O[C@H]1C`, the IC50 in assay [1] stood at 0.46 µg/mL (≈ 2.17 µM); in the assay on Plasmodium falciparum [4], 3.1 nM. As for `C=C(C)[C@@H]1OOC2(CCCC2)O[C@H]1C(C)C`, the IC50 in assay [1] was found to be 0.82 µg/mL (≈ 3.62 µM); with Plasmodium falciparum [5] it was 10.6 nM. In the case of `C=C(C)C1OO[C@]2(O[C@H]1C1CC1)[C@H]1CC3C[C@@H](C1)C[C@H]2C3` (stereo partly drawn), the concentration for half-maximal inhibition (IC50) in assay [1] came out at 0.74 µg/mL (≈ 2.55 µM); with Plasmodium falciparum [6], 1.9 nM. In the case of `C=C(C)[C@@H]1OOC2(CCCC2)O[C@H]1C(C)(C)C`, the values for the concentration for half-maximal inhibition (IC50) (in assay [1]; in the assay on Plasmodium falciparum [7]) were 3.7 µg/mL (≈ 15.4 µM) and 36.6 nM, respectively. In the assay on Plasmodium falciparum [8], `C[C@@H]1CC[C@H]2[C@@H](C)C(=O)O[C@@H]3O[C@@]4(C)CC[C@@H]1[C@]32OO4` [ARTEMISININ] came in with a half-inhibitory concentration (IC50) of 2.8 nM. With `O[C@H](c1cc(C(F)(F)F)nc2c(C(F)(F)F)cccc12)[C@@H]1CCCCN1` [MEFLOQUINE], the IC50 in assay [1] is 1.9 µg/mL (≈ 5.02 µM).
